Assay results from article PMC11409674, “Raffinocyclicin is a novel plasmid-encoded circular bacteriocin produced by Lactococcus raffinolactis with broad-spectrum activity against many gram-positive food pathogens” (Applied and environmental microbiology, 2024).
“Also recorded” adds a separate entry of the source.

Key:
[1] = test system: Klebsiella pneumoniae C02.b; test: spot-on-lawn assay; type: cell-based; set-up: key: –: no activity; +: 0.5–5 mm inhibition zone; ++: >5–≤10 mm inhibition zone; +++: >10 mm inhibition zone; conditions: producer spot on M17, chloroform-inactivated, overlay ~7.0 log CFU/mL indicator; 37 °C, Aerobic, BHI; true halo, triplicate
[2] = test system: Staphylococcus aureus DPC 5645; test: spot-on-lawn assay; type: cell-based; set-up: key: –: no activity; +: 0.5–5 mm inhibition zone; ++: >5–≤10 mm inhibition zone; +++: >10 mm inhibition zone; conditions: producer spot on M17, chloroform-inactivated, overlay ~7.0 log CFU/mL indicator; 37 °C, Aerobic, BHI; true halo, triplicate
VRE APC 1028 = test: spot-on-lawn assay; type: cell-based, vancomycin-resistant enterococci; conditions: producer spot on M17, chloroform-inactivated, overlay ~7.0 log CFU/mL indicator; 37 °C, Aerobic, BHI; true halo, triplicate
S. agalactiae 119 = test: spot-on-lawn assay; type: cell-based, Streptococcus agalactiae; conditions: producer spot on M17, chloroform-inactivated, overlay ~7.0 log CFU/mL indicator; 37 °C, Aerobic, TSA; true halo, triplicate
E. faecium DSM 26544 = test: spot-on-lawn assay; type: cell-based, Enterococcus faecium; conditions: producer spot on M17, chloroform-inactivated, overlay ~7.0 log CFU/mL indicator; 37 °C, Aerobic, BHI; true halo, triplicate
[3] = test system: Staphylococcus capitis APC 2923; test: spot-on-lawn assay; type: cell-based; set-up: key: –: no activity; +: 0.5–5 mm inhibition zone; ++: >5–≤10 mm inhibition zone; +++: >10 mm inhibition zone; conditions: producer spot on M17, chloroform-inactivated, overlay ~7.0 log CFU/mL indicator; 37 °C, Aerobic, BHI; true halo, triplicate
S. aureus B2M = test: spot-on-lawn assay; type: cell-based, Staphylococcus aureus; conditions: producer spot on M17, chloroform-inactivated, overlay ~7.0 log CFU/mL indicator; 37 °C, Aerobic, BHI; true halo, triplicate
VRE APC 1027 = test: spot-on-lawn assay; type: cell-based, vancomycin-resistant enterococci; conditions: producer spot on M17, chloroform-inactivated, overlay ~7.0 log CFU/mL indicator; 37 °C, Aerobic, BHI; true halo, triplicate
E. faecium DPC 3675 = test: spot-on-lawn assay; type: cell-based, Enterococcus faecium; conditions: producer spot on M17, chloroform-inactivated, overlay ~7.0 log CFU/mL indicator; 37 °C, Aerobic, BHI; true halo, triplicate
[4] = test system: Streptococcus agalactiae 35; test: spot-on-lawn assay; type: cell-based; conditions: producer spot on M17, chloroform-inactivated, overlay ~7.0 log CFU/mL indicator; 37 °C, Aerobic, TSA; true halo, triplicate
E. faecium DPC 5152 = test: spot-on-lawn assay; type: cell-based, Enterococcus faecium; conditions: producer spot on M17, chloroform-inactivated, overlay ~7.0 log CFU/mL indicator; 37 °C, Aerobic, BHI; true halo, triplicate
Lactococcus lactis HP = test: spot-on-lawn assay; type: cell-based; conditions: producer spot on M17, chloroform-inactivated, overlay ~7.0 log CFU/mL indicator; 30 °C, Aerobic, GM17; true halo, triplicate
[5] = test system: Enterococcus faecium NCD 0942; test: spot-on-lawn assay; type: cell-based; conditions: producer spot on M17, chloroform-inactivated, overlay ~7.0 log CFU/mL indicator; 37 °C, Aerobic, BHI; true halo, triplicate
VRE APC 1029 = test: spot-on-lawn assay; type: cell-based, vancomycin-resistant enterococci; conditions: producer spot on M17, chloroform-inactivated, overlay ~7.0 log CFU/mL indicator; 37 °C, Aerobic, BHI; true halo, triplicate
S. aureus C5M = test: spot-on-lawn assay; type: cell-based, Staphylococcus aureus; set-up: key: –: no activity; +: 0.5–5 mm inhibition zone; ++: >5–≤10 mm inhibition zone; +++: >10 mm inhibition zone; conditions: producer spot on M17, chloroform-inactivated, overlay ~7.0 log CFU/mL indicator; 37 °C, Aerobic, BHI; true halo, triplicate
L. lactis ATCC 11454 = test: spot-on-lawn assay; type: cell-based, Lactococcus lactis; conditions: producer spot on M17, chloroform-inactivated, overlay ~7.0 log CFU/mL indicator; 30 °C, Aerobic, GM17; true halo, triplicate
[6] = residual antimicrobial activity after NaOH treatment; type: physicochemical; conditions: NaOH 0.2 M, 37 °C, 4 h
Description: The effects of proteinase K (1 mg/mL; Sigma-Aldrich, St Louis, USA), trypsin (1 mg/mL; Merck KgaA, Darmstad, DE), and 0.2 M NaOH on antimicrobial activity were evaluated on agar plates by the methods described previously ([42]). Briefly, 5 µL of an overnight growth suspension of the strain L. raffinolactis APC 3967 was spotted four times on a plate and incubated at optimal conditions. Afterward, the cells were inactivated by chloroform, and 40 µL of the corresponding treatment (protease or NaOH 0.2 M) was spotted around the producer strain. The control was treated with 10 mM PBS, pH 7.4. The plate was incubated at 37°C for 4 h to favor protease activity. The plate was then overlaid with L. lactis HP and incubated at 30°C for 24 h. Results were interpreted by measuring the true halo of the sample, and the following equation calculated the final values of the residual activity: (true halo of treated condition/true halo of the control) × 100 = residual activity (%).

[7] = test system: Pseudomonas aeruginosa PA-01; test: spot-on-lawn assay; type: cell-based; set-up: key: –: no activity; +: 0.5–5 mm inhibition zone; ++: >5–≤10 mm inhibition zone; +++: >10 mm inhibition zone; conditions: producer spot on M17, chloroform-inactivated, overlay ~7.0 log CFU/mL indicator; 37 °C, Aerobic, BHI; true halo, triplicate
VRE APC 1026 = test: spot-on-lawn assay; type: cell-based, vancomycin-resistant enterococci; conditions: producer spot on M17, chloroform-inactivated, overlay ~7.0 log CFU/mL indicator; 37 °C, Aerobic, BHI; true halo, triplicate
[8] = test system: Lactobacillus delbrueckii subsp. bulgaricus LMG 6901; test: spot-on-lawn assay; type: cell-based; conditions: producer spot on M17, chloroform-inactivated, overlay ~7.0 log CFU/mL indicator; 37 °C, Anaerobic, MRS; true halo, triplicate
[9] = test system: Staphylococcus epidermidis DSM 3095; test: spot-on-lawn assay; type: cell-based; conditions: producer spot on M17, chloroform-inactivated, overlay ~7.0 log CFU/mL indicator; 37 °C, Aerobic, BHI; true halo, triplicate
[10] = test system: Staphylococcus pseudointermedius DK 279; test: spot-on-lawn assay; type: cell-based; set-up: key: –: no activity; +: 0.5–5 mm inhibition zone; ++: >5–≤10 mm inhibition zone; +++: >10 mm inhibition zone; conditions: producer spot on M17, chloroform-inactivated, overlay ~7.0 log CFU/mL indicator; 37 °C, Aerobic, BHI; true halo, triplicate
Bacilllus cereus KH 1453 = test: spot-on-lawn assay; type: cell-based; set-up: key: –: no activity; +: 0.5–5 mm inhibition zone; ++: >5–≤10 mm inhibition zone; +++: >10 mm inhibition zone; conditions: producer spot on M17, chloroform-inactivated, overlay ~7.0 log CFU/mL indicator; 37 °C, Aerobic, BHI; true halo, triplicate
[11] = test system: Enterococcus faecalis ATCC 29200; test: spot-on-lawn assay; type: cell-based; conditions: producer spot on M17, chloroform-inactivated, overlay ~7.0 log CFU/mL indicator; 37 °C, Aerobic, BHI; true halo, triplicate
Listeria innocua UCC = test: spot-on-lawn assay; type: cell-based; conditions: producer spot on M17, chloroform-inactivated, overlay ~7.0 log CFU/mL indicator; 37 °C, Aerobic, BHI; true halo, triplicate
[12] = test system: Clostridium perfringens EM124; type: cell-based; conditions: producer spot on M17, chloroform-inactivated, overlay ~7.0 log CFU/mL indicator; 37 °C, Anaerobic, RCM; true halo, triplicate
[13] = test system: Leuconostoc mesenteroides KH 24; test: spot-on-lawn assay; type: cell-based; conditions: producer spot on M17, chloroform-inactivated, overlay ~7.0 log CFU/mL indicator; 30 °C, Aerobic, MRS; true halo, triplicate
E. faecalis V583 = test: spot-on-lawn assay; type: cell-based, Enterococcus faecalis; conditions: producer spot on M17, chloroform-inactivated, overlay ~7.0 log CFU/mL indicator; 37 °C, Aerobic, BHI; true halo, triplicate
Escherichia sp. UCC = test: spot-on-lawn assay; type: cell-based; set-up: key to Activity (inhibition zone): –: no activity; +: 0.5–5 mm inhibition zone; ++: >5–≤10 mm inhibition zone; +++: >10 mm inhibition zone
Description: The antimicrobial activity of the strain L. raffinolactis APC 3967 was evaluated on M17 medium by the agar-spot test as described by Giambiagi-deMarval et al. ([42]) with minor modifications ([42]). Briefly, 5 µL of an overnight growth suspension of the producer strain was spotted on the surface of the agar plate and incubated overnight at 30°C. Cells were inactivated by chloroform and overlaid with 3 mL soft agar (0.75% wt/vol) containing the target strain (~7.0 log CFU/mL), and these plates were incubated overnight. The growth conditions of every target strain used in this assay are outlined in Table 1. The interpretation of inhibition was performed by measuring the true halo of the inhibitory zone (total halo – spot size = true halo) and was classified into one of four groups: (i) no inhibition (0 mm); (ii) weak inhibition (0.5–5 mm); (iii) moderate inhibition (>5–≤10 mm); and (iv) strong inhibition (>10 mm). These assays were performed in triplicate.

[14] = test system: Listeria monocytogenes EDGe; test: spot-on-lawn assay; type: cell-based; conditions: producer spot on M17, chloroform-inactivated, overlay ~7.0 log CFU/mL indicator; 37 °C, Aerobic, BHI; true halo, triplicate
[15] = test system: Micrococcus luteus APC 4061; test: spot-on-lawn assay; type: cell-based; conditions: producer spot on M17, chloroform-inactivated, overlay ~7.0 log CFU/mL indicator; 37 °C, Aerobic, BHI; true halo, triplicate
proteases = test system: proteases; set-up: method as in 4 sources, ref 33 = [33]; PMID 21948835; doi:10.1128/AEM.06348-11; 33 Masuda Y Ono H Kitagawa H Ito H Mu F Sawa N Zendo T Sonomoto K Identification and characterization of leucocyclicin Q, a novel cyclic bacteriocin produced by Leuconostoc mesenteroides TK41401 Appl ||| ref 27 = [27]; PMID 21057028; doi:10.1128/AEM.01173-10; 27 Borrero J Brede DA Skaugen M Diep DB Herranz C Nes IF Cintas LM Hernández PE Characterization of garvicin ML, a novel circular bacteriocin produced by Lactococcus garvieae DCC43, isolated from mall ||| ref 30 = [30]; PMID 29177092; doi:10.1099/mgen.0.000134; 30 van Heel AJ Montalban-Lopez M Oliveau Q Kuipers OP Genome-guided identification of novel head-to-tail cyclized antimicrobial peptides, exemplified by the discovery of pumilarin Microb Genom 2017 3 ||| ref 29 = [29]; PMID 18552180; doi:10.1128/AEM.00817-08; 29 Martin-Visscher LA van Belkum MJ Garneau-Tsodikova S Whittal RM Zheng J McMullen LM Vederas JC Isolation and characterization of carnocyclin A, a novel circular bacteriocin produced by Carnobacteri; conditions: cited from earlier work

raffinocyclicin
Activity (inhibition zone) [1]: – | Activity (inhibition zone) [2]: – | Activity (inhibition zone) (VRE APC 1028): ++ (>5–≤10 mm inhibition zone) | Activity (inhibition zone) (S. agalactiae 119): ++ (>5–≤10 mm inhibition zone) | Activity (inhibition zone) (E. faecium DSM 26544): + (0.5–5 mm inhibition zone) | Activity (inhibition zone) [3]: – | Activity (inhibition zone) (S. aureus B2M): + (0.5–5 mm inhibition zone) | Activity (inhibition zone) (VRE APC 1027): ++ (>5–≤10 mm inhibition zone) | Activity (inhibition zone) (E. faecium DPC 3675): ++ (>5–≤10 mm inhibition zone) | Activity (inhibition zone) [4]: ++ (>5–≤10 mm inhibition zone) | Activity (inhibition zone) (E. faecium DPC 5152): + (0.5–5 mm inhibition zone) | Activity (inhibition zone) (Lactococcus lactis HP): +++ (>10 mm inhibition zone) | Activity (inhibition zone) [5]: ++ (>5–≤10 mm inhibition zone) | Activity (inhibition zone) (VRE APC 1029): ++ (>5–≤10 mm inhibition zone) | Activity (inhibition zone) (S. aureus C5M): – | Activity (inhibition zone) (L. lactis ATCC 11454): +++ (>10 mm inhibition zone) | antimicrobial activity after NaOH treatment, in words ([6]; indicator L. lactis HP): resistant; also recorded: remained unchanged | Phenotype ([6]; 40 µL spotted around chloroform-inactivated producer spot, overlay L. lactis HP, 30 °C, 24 h): R | Residual activity ([6]; 40 µL spotted around chloroform-inactivated producer spot, overlay L. lactis HP, 30 °C, 24 h, true halo treated/control (10 mM PBS pH 7.4) × 100): 100% | Activity (inhibition zone) [7]: – | Activity (inhibition zone) (VRE APC 1026): ++ (>5–≤10 mm inhibition zone) | Activity (inhibition zone) [8]: + (0.5–5 mm inhibition zone) | Activity (inhibition zone) [9]: + (0.5–5 mm inhibition zone) | Activity (inhibition zone) [10]: – | Activity (inhibition zone) (Bacilllus cereus KH 1453): – | Activity (inhibition zone) [11]: ++ (>5–≤10 mm inhibition zone) | Activity (inhibition zone) (Listeria innocua UCC): ++ (>5–≤10 mm inhibition zone) | Activity (inhibition zone) [12]: +++ (>10 mm inhibition zone) | Activity (inhibition zone) [13]: + (0.5–5 mm inhibition zone) | Activity (inhibition zone) (E. faecalis V583): + (0.5–5 mm inhibition zone) | Activity (inhibition zone) (Escherichia sp. UCC; producer spot on M17, chloroform-inactivated, overlay ~7.0 log CFU/mL indicator, 37 °C, Aerobic, BHI, true halo, triplicate): – | inhibition in the spot-on-lawn assay, in words (Escherichia sp. UCC; spot-on-lawn assay, producer L. raffinolactis APC 3967): No inhibition | Activity (inhibition zone) [14]: + (0.5–5 mm inhibition zone) | Activity (inhibition zone) [15]: ++ (>5–≤10 mm inhibition zone)

lactocyclicin Q
sensitivity to proteolytic activity (proteases): resistant
